Experimental data published in patent US20120157402A1, “METHODS FOR TREATING BRAIN TUMORS” (priority 2009, published 2012).
Read-outs that look alike come from different tables or passages of the source. Marks after values point to notes of the source that are not given here.

Experiments:
[1] = Single-dose oral toxicity study in rats; details: Sprague Dawley, rat, in vivo, single oral gavage, read-out: NOAEL for 1 day of dosing
Protocol: (§1) The L23 vehicle was used.
Because maximal exposure occurred at 100 mg/kg, this dose is considered the NOAEL for 1 day of dosing.

in vivo [2] = details: beagle, dog
Protocol: (§4) The L23 vehicle was used. […] All studies in the toxicology program were conducted according to GLP regulations.

[3] = Oral pharmacokinetics in mice; assay type: in vivo; details: mouse, plasma, 1-mg/kg dose level, Day 1, read-out: Plasma trough concentration at 24 hours (minimal mean target plasma concentration)
Protocol: The pharmacokinetic evaluations in mice were adjuncts to the primary pharmacodynamic xenograft studies. The evaluations in rats included toxicokinetic assessments in single-dose, 7-day, and 28-day toxicology studies as well as a mass-balance study after a single oral dose of ^14C-Compound #10. The evaluations in dogs included toxicokinetic assessments in 7-day and 28-day toxicology studies. In the studies performed, rodents were dosed once daily with Compound #10 formulated in vehicle and administered via oral gavage.

in vivo [4] = details: both, beagle, dog
Protocol: as §4

[5] = Trough plasma concentrations of Compound #10 in HT1080 xenograft mice (HPLC-MS/MS); assay type: in vivo; details: athymic nude, mouse, oral, 1 mg/kg BID
[6] = 7-day oral toxicity study in rats; details: Sprague Dawley, rat, in vivo
Protocol: as §1
Maximal exposures occurred at a dose of 120 mg/kg/day.

[7] = Phase 1 multiple-dose study in healthy volunteers: pharmacokinetics (Table 28); assay type: in vivo; details: human, plasma, oral; for concentration at 24 h: 24 hours after first daily dose, read-out: C24 h; for AUC(0-t): read-out: AUC0-24; for Cmax: read-out: Cmax (after PM dose)
Protocol: The study was performed under the oversight of the French health authorities. The study was not performed under an IND.
Methods. The trial was a Phase 1, randomized, escalating multiple dose, single center study conducted in 2 stages.
Capsules contained 2 mg or 20 mg of active substance.
Capsules contained 20 mg or 25 mg of active substance.
Noncompartmental methods were used to compute Tmax, Cmax, and AUC. Dose proportionality and sex effect were evaluated using ANOVA on log transformed PK parameters using dose, sex, and dose by sex as fixed factors.

in vivo [8] = details: Sprague Dawley, rat
Protocol: as §4

HT1080 xenografts [9] = assay: Tumor growth in nude mice bearing HT1080 xenografts; assay type: in vivo, athymic nude mice
Protocol: (§2) In all of these experiments, HT1080 cells (5×10^6 cells/mouse) were implanted subcutaneously in male athymic nude mice. When tumors had become established, mice were divided into groups (10 mice/group). […] Tumor size was measured by calipers at the beginning and end of treatment. At the completion of Compound administration, the mice were sacrificed, and excised tumors were assayed by ELISA for intratumoral VEGF or other angiogenic factors using methods analogous to those described in Section 9.1.1.1.
Experimental Study Design. HT1080 cells (5×10^6 cells/mouse) were implanted subcutaneously in male athymic nude mice.
Tumor size was measured using calipers at periodic intervals during the study (data shown in Section 9.2.2). […] The study was ended after 18 days, when the vehicle treated tumors reached a mean volume of ˜1755 mm^3. […] Mice were sacrificed, and excised tumors were homogenized in buffer containing protease inhibitors. Both terminal intratumoral and pathologic plasma human VEGF levels were measured using an ELISA that recognizes human VEGF121 and VEGF165 (as described in Section 9.1.1.1). Intratumoral VEGF levels were normalized to the total tumor protein concentration, while pathologic plasma human VEGF levels were expressed in pg/mL of plasma.
Experimental Design. HT1080 cells (5×10^6 cells/mice) were implanted subcutaneously into male athymic nude mice. Treatment with vehicle alone or Compound 1205 was initiated when the median tumor volume was approximately 311±88 mm^3. Table 7 and Table 9 (study design #21 and #23) provide the study design for assessing tumor and plasma pathologic VEGF concentrations—each group in each study included eight (8) mice. When the tumors in vehicle-treated mice had reached the target size of ˜1200 mm^3 for study #21 and ˜1500 mm^3 for study #23, all mice in the study were sacrificed, and excised tumors were homogenized in buffer containing protease inhibitors. Both intra-tumor and pathologic plasma human VEGF levels were measured using an ELISA that recognizes human VEGF121 and VEGF165. Intra-tumor VEGF levels were normalized to the total tumor protein concentration and pathologic plasma VEGF levels were expressed in pg/mL. Because smaller tumors produce less VEGF per mg of tumor protein, intra-tumor VEGF levels were normalized to tumor size.
Experimental Design. HT1080 cells (5×10^6 cells/mouse) were implanted subcutaneously in male athymic nude mice. […] For comparison, Compound #10 was included in this study.
(§3) Experimental Design. HT1080 cells (5×10^6 cells/mouse) were implanted subcutaneously in male athymic nude mice.
Tumor size was measured by calipers immediately pre-treatment and at the time of sacrifice on Day 1, 2, or 3 (5 mice per group per day). At sacrifice, the plasma was collected for assay of pathologic human VEGF concentration using an ELISA that recognizes human VEGF121 and VEGF165 (as described in Section 9.1.1.1).

D245MG-PR cells = assay: D245MG-PR (procarbazine-resistant) lethality model of GBM, monotherapy and with temozolomide; assay type: in vivo, Balb/C nu/nu mice; details: Cpd #10 10 mg/kg oral QD from Day 3; TMZ 250 mg/kg IP from Day 5 (control 70 days)
Protocol: Forty (40) female Balb/C nu/nu mice at least 6 weeks of age but not more than 12 weeks at study initiation, weighing at study initiation 18-28 g, were implanted intracranially. D245MG-PR cells (procarbazine-resistant cells derived from an adult human GBM tumor) in a medium using a 25-gauge needle. Mice were anesthetized with Ketamine/Rompun cocktail prior to IC implantation. The day of tumor cell implantation was designated as Day 0. Animals were randomly assigned to treatment groups (10 mice per treatment group).
Mice in Group 1 were administered L21 vehicle alone orally once per day beginning on Day 3. […] Mice in Group 3 were administered 250 mg/kg TMZ intraperitoneally (IP) beginning on Day 5.
Body weights were measured the day that dosing was initiated and once a week thereafter. Observations were made on animals that died or were sacrificed at an unscheduled interval. Animals were sacrificed if moribund.

[10] = test system: human VEGF121 and VEGF165; assay: Intratumoral and plasma human VEGF (ELISA) in nude mice bearing HT1080 xenografts; assay type: in vivo, athymic nude mice; details: Day 1; Compound #10 10 mg/kg oral QD, doxorubicin 6 mg/kg IP, bevacizumab 5 mg/kg IP single bolus
Protocol: as §2
Tumor size was measured using calipers at periodic intervals during the study (data shown in Section 9.2.2). […] The study was ended after 18 days, when the vehicle treated tumors reached a mean volume of ˜1755 mm^3. […] Mice were sacrificed, and excised tumors were homogenized in buffer containing protease inhibitors. Both terminal intratumoral and pathologic plasma human VEGF levels were measured using an ELISA that recognizes human VEGF121 and VEGF165 (as described in Section 9.1.1.1). […]
Experimental Design. […] Both intra-tumor and pathologic plasma human VEGF levels were measured using an ELISA that recognizes human VEGF121 and VEGF165. […]
Tumor size was measured by calipers immediately pre-treatment and at the time of sacrifice on Day 1, 2, or 3 (5 mice per group per day). […]

HT1080 xenografts [11] = assay: BrdU labeling of tumor cells from HT1080 xenografts in nude mice; assay type: in vivo, athymic nude mice; details: Days 1-3; Compound #10 10 mg/kg oral QD, doxorubicin, bevacizumab
Protocol: as §3
The mice were sacrificed 3 hours later, and the tumors collected. A single cell suspension was prepared from the tumor cells. The cells were permeabilized and an antibody to BrdU was used to stain cells that had entered S phase during the labeling period. The proportion of cells actively synthesizing DNA was determined by cell sorting.

[12] = test system: soluble VEGF121 and VEGF165; assay: Inhibition of soluble VEGF production in human tumor cell lines, ELISA EC50 (Table 4); assay type: cell-based; details: tumor cells, data not shown
Protocol: Study Design. […] In these experiments, cultures were established under normoxic conditions (21% oxygen). […] Cells requiring induction of VEGF production were incubated under hypoxic conditions (1% oxygen). At the completion of treatment, the conditioned media were collected and assayed by ELISA (as described in Section 9.1.1.1) for soluble VEGF121 and VEGF165 isoforms; results were calculated as percentage inhibition relative to vehicle treated controls. EC50 values were calculated from the dose concentration response curves.

HT1080 cells = assay: Cell cycle analysis in HT1080 cells, propidium iodide flow cytometry (Table 24; reversibility); assay type: cell-based, human; details: tumor cells, data not shown
Protocol: Experimental Design. […] After treatment, cells were trypsinized, and stained with propidium iodide (PI) dye to measure DNA content of individual cells by flow cytometry. Output comprised histograms showing relative DNA content in 10,000 cells.
While compounds which cause greater than 20% of the cells to accumulate in S-phase at 100 nM are considered active, a larger percentage of cells may be accumulated in S-phase at lower doses depending on the Compound, as shown in FIG. 12 for example.

[13] = both sexes, 0.3 mg/kg, Stage 1, 0.3 mg/kg BID, Day 1, mean
[14] = both sexes, 0.3 mg/kg, Stage 1, 0.3 mg/kg BID, Day 7, mean
[15] = both sexes, 0.6 mg/kg, Stage 1, 0.6 mg/kg BID, Day 1, mean

COc1ccc([C@H]2c3[nH]c4ccc(Cl)cc4c3CCN2C(=O)Oc2ccc(Cl)cc2)cc1 (racemic) [Compound #10]
NOAEL at 1 day [1]: 100 mg/kg | NOAEL at 7 days (in vivo [2]): 60 mg/kg/day | concentration at 24 h [3]: 100 to 150 ng/mL | NOAEL at 28 days (in vivo [4]): 30 mg/kg/day | concentration at 16 h ([5]; 16 hours after the first day of dosing (n=3), read-out: Mean trough plasma concentration): 130 ng/mL | concentration at 16 h ([5]; 16 hours after the first day of dosing (n=3), read-out: Mean trough plasma concentration (value in brackets)): 280 ng/mL | concentration at 16 h ([5]; 16 hours after the last dose on Day 18 (n=4), read-out: Steady state mean trough plasma concentration): 820 ng/mL | NOAEL at 7 days ([6]; female rats): 120 mg/kg/day | NOAEL at 7 days ([6]; male rats): 40 mg/kg/day | concentration at 24 h ([7]; both sexes, 0.3 mg/kg BID, Stage 1, 0.3 mg/kg BID, Day 1, mean): 94 ng/mL | concentration at 24 h ([7]; both sexes, 0.3 mg/kg BID, Stage 1, 0.3 mg/kg BID, Day 7, mean): 210 ng/mL | AUC(0-t) [7, 13]: 4310 ng·h/mL | Cmax [7, 13]: 480 ng/mL | Tmax ([7]; both sexes, 0.3 mg/kg, Stage 1, 0.3 mg/kg BID, Day 1, mean, read-out: Tmax (after PM dose)): 3.16 h | AUC(0-t) [7, 14]: 8440 ng·h/mL | Cmax [7, 14]: 590 ng/mL | concentration at 24 h ([7]; both sexes, 0.6 mg/kg BID, Stage 1, 0.6 mg/kg BID, Day 1, mean): 260 ng/mL | concentration at 24 h ([7]; both sexes, 0.6 mg/kg BID, Stage 1, 0.6 mg/kg BID, Day 7, mean): 540 ng/mL | AUC(0-t) [7, 15]: 10100 ng·h/mL | Cmax [7, 15]: 970 ng/mL | Tmax ([7]; both sexes, 0.6 mg/kg, Stage 1, 0.6 mg/kg BID, Day 1, mean, read-out: Tmax (after PM dose)): 3.17 h | Cmax ([7]; both sexes, 0.6 mg/kg, Stage 1, 0.6 mg/kg BID, Day 7, mean): 1160 ng/mL | Tmax ([7]; both sexes, Stage 1 and Stage 2, read-out: Mean Tmax): ~3 h | AUC(0-t) ([7]; both sexes, Stage 1, 0.6 mg/kg BID, Day 7, mean): 18600 ng·h/mL | Tmax ([7]; both, […], Stage 2, […] TID, Day 1, mean, read-out: Tmax (after PM dose)): 2.5 h | Tmax ([7]; both, Stage 1, 1.2 mg/kg BID, Day 1, mean, read-out: Tmax (after PM dose)): 3 h | NOAEL at 28 days (in vivo [8]): 12 mg/kg/day

O=C(Oc1ccc(Cl)cc1)N1CCc2c([nH]c3ccc(Cl)cc23)[C@@H]1c1ccc(OCC[C@H](O)CO)cc1 [Compound 1205]
Mean difference in tumor growth rate at the Day that the vehicle-treated tumors taken off study (%) (HT1080 xenografts [9]; Study 21, 3 mg/kg QD, Day 14): 80%** | Mean difference in tumor growth rate at the Day that the vehicle-treated tumors taken off study (%) (HT1080 xenografts [9]; Study 22, 0.5 mg/kg QD, Day 11): 62%** | Mean difference in tumor growth rate at the Day that the vehicle-treated tumors taken off study (%) (HT1080 xenografts [9]; Study 22, 3 mg/kg QD, Day 11): 75%** | Mean difference in tumor growth rate at the Day that the vehicle-treated tumors taken off study (%) (HT1080 xenografts [9]; Study 23, 1 mg/kg QD, Day 14): 59%** | Mean difference in tumor growth rate at the Day that the vehicle-treated tumors taken off study (%) (HT1080 xenografts [9]; Study 24a, 10 mg/kg QD, Day 11): 76%** | Mean difference in tumor growth rate at the Day that the vehicle-treated tumors taken off study (%) (HT1080 xenografts [9]; Study 24b, 0.3 mg/kg QD, Day 15): 28% ^

Cn1nnc2c(C(N)=O)ncn2c1=O [TEMODAR, temozolomide]
Median survival time (D245MG-PR cells): 86 days

COc1cccc2c1C(=O)c1c(O)c3c(c(O)c1C2=O)C[C@@](O)(C(=O)CO)C[C@@H]3O[C@H]1C[C@H](N)[C@H](O)[C@H](C)O1 [doxorubicin]
Pathologic plasma human VEGF levels vs control [10]: numerically lower than in control animals by Day 1 | BrdU staining of tumor cells (fraction in S phase) (HT1080 xenografts [11]): decreased the percentage of tumor cells staining with BrdU

NC(Cn1ccc(=O)c(O)c1)C(=O)O (centres unmarked) [mimosine]
VEGF production [12]: does not delay or prolong the cell cycle or reduce VEGF production | Cell cycle delay or prolongation (HT1080 cells): does not delay or prolong the cell cycle or reduce VEGF production
